Converted amounts (≈) assume the structure as drawn. Read-outs that look alike come from different tables or passages of the source.
What was measured:
[1] = system: S. mansoni adult worms; assay: In vitro antischistosomal assay on adult worms; format: cell-based, Schistosoma mansoni; settings: for Activity against 49-day-old S. mansoni worms at 50 µM: adult worms, initial in vitro trial, 72 h; for EC50: Schistosoma mansoni, based on mortality, after 72 h, 95% confidence interval in square brackets
Protocol: The antischistosomal assay was performed according to the methodology previously described[16],[19],[20]. Briefly, […], were incubated in flat bottom 24-well plates (Corning, New York, NY, USA) in RPMI 1640 culture medium (Vitrocell, Campinas, SP, Brazil) supplemented with 5% inactivated fetal calf serum, antibiotics (100 U/mL penicillin and 100 μg/mL streptomycin), and buffered with HEPES 25 mM (Sigma-Aldrich, St. Louis, MO, USA). Compounds were dissolved in dimethyl sulfoxide (DMSO at a final concentration of 0.5% v/v) and tested at 50 μM using PZQ 2 μM and DMSO 0.5% as positive and negative controls, respectively. Parasites were kept for 72 h (37 °C, 5% CO2, Panasonic, Osaka, Japan) and their viability was assessed using a Motic AE2000 inverted microscope (Vancouver, Canada)[21]. Each experiment was performed in triplicate and repeated at least three times. The negative control (using the highest concentration of DMSO, i.e., 0.5) and positive control (praziquantel 2 µM) were included.
Each concentration was tested in five replicates, and experiments were repeated once.

[2] = In vitro cytotoxicity assay (MTT) on Vero cells; format: cell-based, African green monkey; settings: African green monkey, Vero cells (ATCC CCL-81); Vero cells; MTT assay; 72 h; read-out: Mammalian cells CC50
Protocol: (§1) The life cycle of S. mansoni (Belo Horizonte strain) is maintained through routine passage through Biomphalaria glabrata snails and Swiss mice at the Research Center on Neglected Diseases (Guarulhos University, SP, Brazil). Both rodents and snails were kept under environmentally controlled conditions (25 °C; humidity of 50%), with free access to food and water. Vero cells were obtained from the American Type Culture Collection (ATCC CCL-81; Manassas, VA, USA). Cells were routinely cultured in Dulbecco’s Modified Eagle Medium (DMEM) supplemented with 5% heat-inactivated fetal bovine serum and antibiotics (100 U/mL penicillin and 100 μg/mL streptomycin) at 37 °C in a humidified atmosphere containing 5% CO2 [17].
(§2) The cytotoxicity of the compounds on the Vero cells was determined by thiazolyl blue tetrazolium bromide (MTT) assay (Sigma-Aldrich) as previously described[21],[24]. […] After 72 h, MTT solution was added to each well and the absorbance at 595 nm was read on a spectrophotometer (Epoch, BioTek Instruments, Winooski, VT, USA).

[3] = system: Vero cells; assay: In vitro cytotoxicity assay (MTT) on Vero cells; format: cell-based, African green monkey; settings: CC50 on Vero cells divided by EC50 on schistosomes (based on the highest concentration)
Protocol: as §1, §2

[4] = system: S. mansoni-infected mice; assay: In vivo antiparasitic study in an animal model of schistosomiasis; settings: 400 mg/kg single oral dose, vs infected untreated control
Protocol: In vivo studies in S. mansoni-infected mice were performed according to standard protocols[20],[26]. Rodents (3 weeks old) were infected subcutaneously with 80 S. mansoni cercariae each and animals were randomly divided into experimental groups (five mice per group). Compounds were dissolved in 2% ethanol in water (v/v) and tested at a single oral dose (400 mg/kg) administered 42 days post-infection[27]. For comparison, praziquantel (400 mg/kg) and a corresponding amount of vehicle were administered to groups of five schistosomes-infected animals in the same period[28],[29]. […] The percentage of worm and egg reduction was calculated by means of the following equation: % reduction = [(value of untreated control group − value of treatment group)/value of untreated control group] × 100%[32]. The nonparametric Kruskal–Wallis test was used to compare the medians of the responses between the treatment and control groups using the GraphPad Prism software (version 8.0; CA, USA). Differences were considered statistically significant at P < 0.05[9].

[5] = system: Caenorhabditis elegans; format: in vivo; settings: L4 stage, 24 h
Protocol: Caenorhabditis elegans wild-type (N2 strain), kindly provided by Dr. Carlos E. Winter (University of São Paulo), was routinely cultured at 22 °C on nematode growth medium (NGM) plates seeded with Escherichia coli (strain OP50) as a food source according to standard protocols.
For the drug assessment, the age-synchronized L1 stage was cultivated on standard NGM plates. When at the L4 stage, approximately 25 nematodes were transferred to each well of a 96-wells NGM plates containing the drug of interest at the desired concentration (10, 25, 50, 100, and 200 μM) along with a positive control (levamisole 10 μM) and a negative control (DMSO 0.5%). Nematodes were kept at 22 °C for 24 h, and their viability was verified microscopically using a Motic AE2000 inverted microscope (Vancouver, Canada) equipped with an ultra-high definition (UHD) camera and with a 48-inch 4K-UHD monitor system (LG Electronics, São Paulo, Brazil)[33].

[6] = system: cathepsin B1 from Schistosoma mansoni (SmCB1); design: method as in ref 2 (Fonseca et al.); settings: ref 2 (Fonseca et al.), cited from earlier work
[7] = system: Schistosoma mansoni worms; design: method as in ref 1 (Santiago et al.); settings: after 144 h; target not determined; ref 1 (Santiago et al.); cited from earlier work
[8] = female adult worms, read-out: S. mansoni EC50 Female
[9] = male adult worms, read-out: S. mansoni EC50 Male

For `Clc1ccc2c(N/N=C/c3ccccc3)ccnc2c1` [GPQF-8Q1, 4-[(2E)-2-benzylidenehydrazinyl]-7-chloroquinoline], the “Activity against 49-day-old S. mansoni worms at 50 µM” value (“Activity” for short) [1] was “Inactive” and the melting point was 220 to 224 °C.
In the case of `O=[N+]([O-])c1ccc(/C=N/Nc2ccnc3cc(Cl)ccc23)cc1` [GPQF-8Q3, 7-Chloro-4-[(2E)-2-(4-nitrobenzylidene)hydrazinyl]quinoline], the “Activity” value [1] is reported as “Inactive”.
With `COc1cc(/C=N/Nc2ccnc3cc(Cl)ccc23)ccc1O` [GPQF-8Q4, 4-{(E)-[2-(7-chloroquinolin-4-yl)hydrazinylidene]methyl}-2-methoxyphenol] the “Activity” value [1] was “Inactive”.
For `O=[N+]([O-])c1ccc(/C=N/Nc2ccnc3cc(Cl)ccc23)o1` [GPQF-8Q6, 7-Chloro-4-{(2E)-2-[(5-nitrofuran-2-yl)methylidene]hydrazinyl}quinoline], the “Activity” value [1] was “Inactive”.
In the case of `Clc1ccc2c(N/N=C/c3cccs3)ccnc2c1` [GPQF-8Q8, 7-Chloro-4-[(2E)-2-(thiophen-2-ylmethylidene)hydrazinyl]quinoline], the “Activity” value [1] is reported as “Active”, the EC50 [1, 8] is reported as 28.5 µM and the EC50 [1, 9] is reported as 35.8 µM. The CC50 at 72 h [2] was > 200 µM, the “SI (selectivity index)” value [3] was > 5.6 and the “Reduction in worm burden” value ([4]; 42 days post-infection) was 50.8%. The “Reduction in eggs found in feces” value ([4]; Kato-Katz technique) was 52.8%, the “Reduction in immature eggs found in the intestines” value ([4]; oogram) was 45.8% and the “Survival percentage of C. elegans” value ([5]; 10 μM) was 100%. The “Survival percentage of C. elegans” value ([5]; 25 μM) was 100%, the “Survival percentage of C. elegans” value ([5]; 50 μM) was 100% and the “Survival percentage of C. elegans” value ([5]; 100 μM) was 100%. For the same compound, the “Survival percentage of C. elegans” value ([5]; 200 μM) was 100%.
For `Cc1ccc(/C=N/Nc2ccnc3cc(Cl)ccc23)cc1` [GPQF-8Q10, 7-Chloro-4-[(2E)-2-(4-methylbenzylidene)hydrazinyl]quinoline], the “Time to worm mortality” value ([1]; 25 µM) was ≤ 24 h, the “Activity” value [1] was “Active” and the EC50 [1, 8] was 15.6 µM. The EC50 [1, 9] was 13.3 µM, the CC50 at 72 h [2] was > 200 µM and the “SI (selectivity index)” value [3] was > 12.8. The “Survival percentage of C. elegans” value ([5]; 10 μM) was 100%, the “Survival percentage of C. elegans” value ([5]; 25 μM) was 100% and the “Survival percentage of C. elegans” value ([5]; 50 μM) was 100%. The “Survival percentage of C. elegans” value ([5]; 100 μM) was 100% and the “Survival percentage of C. elegans” value ([5]; 200 μM) was 100%.
Work on `Fc1ccc(/C=N/Nc2ccnc3cc(Cl)ccc23)cc1` [GPQF-8Q12, 7-Chloro-4-[(2E)-2-(4-fluorobenzylidene)hydrazinyl]quinoline] yielded a melting point of 236 to 241 °C.
For `Clc1ccc2c(N/N=C/c3ccc(Cl)c(Cl)c3)ccnc2c1` [GPQF-8Q13, 7-Chloro-4-[(2E)-2-(3,4-dichlorobenzylidene)hydrazinyl]quinoline], the “Activity” value [1] was “Inactive” and the melting point was 320 °C (dec.).
For `Oc1ccc(/C=N/Nc2ccnc3cc(Cl)ccc23)c(O)c1` [GPQF-8Q14, 4-{(E)-[2-(7-chloroquinolin-4-yl)hydrazinylidene]methyl}benzene-1,3-diol], the “Activity” value [1] was “Inactive”.
In the case of `C/C(=N\Nc1ccnc2cc(Cl)ccc12)c1ccccc1` [GPQF-8Q16, 7-Chloro-4-[(2E)-2-(1-phenylethylidene)hydrazinyl]quinoline], the “Activity” value [1] is reported as “Inactive” and the melting point is reported as 302 to 306 °C.
In the case of `C/C(=N\Nc1ccnc2cc(Cl)ccc12)c1ccc(O)cc1` [GPQF-8Q17, 4-{(1E)-1-[2-(7-chloroquinolin-4-yl)hydrazinylidene]ethyl}phenol], the “Activity” value [1] is reported as “Inactive”.
With `C/C(=N\Nc1ccnc2cc(Cl)ccc12)c1ccc(C)cc1` [GPQF-8Q18, 7-Chloro-4-{(2E)-2-[1-(4-methylphenyl)ethylidene]hydrazinyl}quinoline] the “Activity” value [1] was “Inactive” and the melting point was 310 °C (dec.).
For `CCc1ccc(/C(C)=N/Nc2ccnc3cc(Cl)ccc23)cc1` [GPQF-8Q19, 7-Chloro-4-{(2E)-2-[1-(4-ethylphenyl)ethylidene]hydrazinyl}quinoline], the “Activity” value [1] was “Inactive” and the melting point was 300 to 304 °C.
In the case of `C/C(=N\Nc1ccnc2cc(Cl)ccc12)c1ccc(Cl)c(Cl)c1` [GPQF-8Q20, 7-Chloro-4-{(2E)-2-[1-(3,4-dichlorophenyl)ethylidene]hydrazinyl}quinoline], the “Activity” value [1] is reported as “Inactive” and the melting point is reported as 294 to 298 °C.
With `C/C(CCc1ccccc1)=N\Nc1ccnc2cc(Cl)ccc12` [GPQF-8Q21, 7-Chloro-4-[(2E)-2-(4-phenylbutan-2-ylidene)hydrazinyl]quinoline] the “Activity” value [1] was “Inactive” and the melting point was 161 to 166 °C.
In the case of `CC/C(C)=N/Nc1ccnc2cc(Cl)ccc12` [GPQF-8Q22, 4-[(2E)-2-(butan-2-ylidene)hydrazinyl]-7-chloroquinoline], the “Activity” value [1] is reported as “Inactive” and the melting point is reported as 71 to 74 °C.
With `CCC/C(C)=N/Nc1ccnc2cc(Cl)ccc12` [GPQF-8Q23, 7-Chloro-4-[(2E)-2-(pentan-2-ylidene)hydrazinyl]quinoline] the “Activity” value [1] was “Inactive” and the melting point was 250 °C (dec.).
In the case of `C/C(=N\Nc1ccnc2cc(Cl)ccc12)C(C)(C)C` [GPQF-8Q25, 7-Chloro-4-[(2E)-2-(3,3-dimethylbutan-2-ylidene)hydrazinyl]quinoline], the “Activity” value [1] is reported as “Inactive” and the melting point is reported as 228 to 232 °C.
With `C/C(=N\Nc1ccnc2cc(Cl)ccc12)c1ccc(Cl)cc1` [GPQF-8Q26, 7-Chloro-4-{(2E)-2-[1-(4-chlorophenyl)ethylidene]hydrazinyl}quinoline] the “Activity” value [1] was “Inactive” and the melting point was 290 to 292 °C.
In the case of `Cc1ccc(/C=N/NC(N)=S)cc1` [II], the IC50 [6] is given as 2.5 µM.
For `NC(=S)N/N=C/c1ccc[nH]1` [IV], the IC50 ([6]; unit inferred) is given as 6.8 µM.
In the case of `c1ccc([C@H]2CN3CCSC3=N2)cc1` [LVM, levamisole, reference compound], the “Survival percentage of C. elegans” value ([5]; 10 μM) is reported as 0%.
For `COc1ccc(-c2cnc(N/N=C/N3C(=O)c4ccccc4C3=O)s2)cc1` [LpQM-45], the “IC50 (worm motility, pairing, oviposition study)” value [7] is listed as 32.09 µg/mL (≈ 84.8 µM).
In the case of `O=C(C1CCCCC1)N1CC(=O)N2CCc3ccccc3C2C1` (stereo not shown) [PZQ, praziquantel, reference compound], the EC50 [1, 8] is reported as 1 µM, the EC50 [1, 9] is reported as 0.7 µM and the CC50 at 72 h [2] is reported as > 200 µM. The “SI (selectivity index)” value [3] was > 200.
In the case of `NC(=S)N/N=C/c1ccncc1` [V], the IC50 ([6]; unit inferred) is listed as 42.4 µM.

From PMC10643403, “Targeting the Schistosoma mansoni nutritional mechanisms to design new antischistosomal compounds” (Scientific Reports, 2023)
